Measurements taken from patent publication US5521163A, “Antiviral pyrimidine nucleosides and methods for using same” (University of Birmingham, priority 1994, dated 1996).

What was measured:
VZV = assay: Plaque reduction assay, VZV clinical isolates in MRC-5 cells; format: cell-based, varicella zoster virus; settings: read-out: IC50 VZV, Table 1, β-anomers
Experimental: Clinical isolates of varicella zoster virus (VZV) were assayed in monolayers of MRC-5 cells. MRC-5 cells are derived from human embyonic lung tissue. A plaque reduction assay was used in which a suspension of the virus stock was used to infect monolayers of the cells in multiwell trays. a range of concentrations of the compound under test of known molarity was added to the wells. Plaque numbers at each concnetration were expressed as percentages of the control and a dose response curve was constructed. From these curves the 50% inhibitory concentration of each drug was determined.

HSV1 = assay: Plaque reduction assay, HSV-1 (strain SC16) in cell monolayers; format: cell-based, Herpes Simplex Virus type 1; settings: Human alphaherpesvirus 1, SC16, Table 1; β-anomers; HSV-1 strain SC16, plaque reduction
Experimental: (§1) Herpes Simplex Virus types 1 (HSV 1) and 2 (HSV2) were assayed in monolayers of Veto cells in multiwell trays. The virus strains used were SC16 and 186 for HSV-1 and HSV-2 respectively. Activity of compounds was determined in the plaque reduction assay, in which a cell monolayer was infected with a suspension of the appropirate HSV, and then overlaid with nutrient agarose in the form of a gel to ensure that there was no spread of virus throughout the culture. A range of concentrations of compound of known molarity was incorporated in the nutrient agarose overlay. Plaque numbers at each concentration were expressed as percentages of the control and a dose-response curve was drawn. From this curve the 50% inhibitory concentration (IC50) was estimated to be 0.66 μm for the compound of formula (I) in which X represents a 2-bromovinyl group.

HSV2 = assay: Plaque reduction assay, HSV-2 (strain 186) in cell monolayers; format: cell-based, Herpes Simplex Virus type 2; settings: Human alphaherpesvirus 2, Table 1; β-anomers; HSV-2 strain 186, plaque reduction
Experimental: as §1

Herpes Simplex Virus = assay: Plaque reduction assay, HSV (type not given); format: cell-based, Herpes Simplex Virus types 1 (HSV 1) and 2 (HSV2); settings: read-out: 50% inhibitory concentration (IC50)
Experimental: as §1

Row | SMILES | IC50 (VZV) | IC50 (HSV1) | IC50 (HSV2) | IC50 (Herpes Simplex Virus)
1 | CCc1cn([C@H]2C[C@H](O)[C@@H](CO)S2)c(=O)[nH]c1=O [X=CH2 CH3, Y=OH, 2'-Deoxy-5-ethyl-4'-thiouridine] | 990 nM | – | – | –
2 | O=c1[nH]c(=O)n([C@H]2C[C@H](O)[C@@H](CO)S2)cc1/C=C/Br [X=CH=CHBr, Y=OH, E-5-(2-bromovinyl)-2'-deoxy-4'-thiouridine] | – | 600 nM | 10000 to 100000 nM | 660 nM
3 | Nc1nc(=O)n([C@H]2C[C@H](O)[C@@H](CO)S2)cc1/C=C/Br [X=CH=CHBr, Y=NH2, 2'-Deoxy-5-E-(2-bromovinyl)-4'-thiocytidine] | – | – | > 10000 nM | –
